Measurements reported in PubChem BioAssay (NCI).
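Cells were grown in 96-well plates and exposed to each compound for 48 hours at five concentrations; endpoints were interpolated linearly between bracketing concentrations, or set to the highest concentration if not reached. TGI marks complete inhibition of growth.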

Tests used:
Test in all cases: NCI-60 cell line screen, 48 h
A498 renal = system: A498 renal
MOLT-4 leukemia = system: MOLT-4 leukemia
KM12 colon = system: KM12 colon
CAKI-1 renal = system: CAKI-1 renal
M14 melanoma = system: M14 melanoma
SF-268 CNS = system: SF-268 CNS
SR leukemia = system: SR leukemia
UACC-257 melanoma = system: UACC-257 melanoma
HOP-92 NSCLC = system: HOP-92 NSCLC
SF-295 CNS = system: SF-295 CNS
HS 578T breast = system: HS 578T breast
MDA-MB-435 = system: MDA-MB-435
RXF 393 renal = system: RXF 393 renal
SK-MEL-2 melanoma = system: SK-MEL-2 melanoma
NCI-H522 lung = system: NCI-H522 lung
SN12C renal = system: SN12C renal
HOP-62 NSCLC = system: HOP-62 NSCLC
PC-3 prostate = system: PC-3 prostate
OVCAR-5 ovarian = system: OVCAR-5 ovarian
786-0 renal = system: 786-0 renal
OVCAR-8 ovarian = system: OVCAR-8 ovarian
EKVX NSCLC = system: EKVX NSCLC
SK-MEL-28 melanoma = system: SK-MEL-28 melanoma
HCT-15 colon = system: HCT-15 colon
CCRF-CEM leukemia = system: CCRF-CEM leukemia
HT29 colon = system: HT29 colon
SNB-75 CNS = system: SNB-75 CNS
A549 NSCLC = system: A549 NSCLC
MALME-3M melanoma = system: MALME-3M melanoma
K-562 leukemia = system: K-562 leukemia
HL-60(TB) leukemia = system: HL-60(TB) leukemia
NCI-H23 lung = system: NCI-H23 lung
MCF7 breast = system: MCF7 breast
MDA-N = system: MDA-N
OVCAR-3 ovarian = system: OVCAR-3 ovarian
TK-10 renal = system: TK-10 renal
SK-OV-3 ovarian = system: SK-OV-3 ovarian
BT-549 breast = system: BT-549 breast
DU-145 prostate = system: DU-145 prostate
IGROV1 ovarian = system: IGROV1 ovarian
SW-620 colon = system: SW-620 colon
SNB-19 CNS = system: SNB-19 CNS
U251 CNS = system: U251 CNS
UO-31 renal = system: UO-31 renal
MDA-MB-231 breast = system: MDA-MB-231 breast
HCT-116 colon = system: HCT-116 colon
SK-MEL-5 melanoma = system: SK-MEL-5 melanoma
ACHN renal = system: ACHN renal
T-47D breast = system: T-47D breast
NCI/ADR-RES ovarian = system: NCI/ADR-RES ovarian
RPMI-8226 leukemia = system: RPMI-8226 leukemia
NCI-H226 lung = system: NCI-H226 lung
OVCAR-4 ovarian = system: OVCAR-4 ovarian
COLO 205 colon = system: COLO 205 colon
LOX IMVI melanoma = system: LOX IMVI melanoma
UACC-62 melanoma = system: UACC-62 melanoma
NCI-H460 lung = system: NCI-H460 lung
HCC-2998 colon = system: HCC-2998 colon
SF-539 CNS = system: SF-539 CNS

For `Cc1ccc2nc(-c3ccc(-n4c(C)nc(=O)c(-c5ccc(F)cc5)c4C)cc3)sc2c1`, the TGI (A498 renal) was 32.9 µM, the TGI (MOLT-4 leukemia) was 27.7 µM and the TGI (KM12 colon) was 38.4 µM. For the same compound, the TGI (CAKI-1 renal) was 35.1 µM, the TGI (M14 melanoma) was 26.4 µM and the TGI (SF-268 CNS) was 53.9 µM. It also gave a TGI (SR leukemia) of 29.5 µM, a TGI (UACC-257 melanoma) of 30.1 µM and a TGI (HOP-92 NSCLC) of 36.9 µM. The TGI (SF-295 CNS) was 33.1 µM, the TGI (HS 578T breast) was 96.9 µM and the TGI (MDA-MB-435) was 32.2 µM. The TGI (RXF 393 renal) was 23.2 µM, the TGI (SK-MEL-2 melanoma) was 35.4 µM and the TGI (NCI-H522 lung) was 35.2 µM. It also gave a TGI (SN12C renal) of 33.8 µM, a TGI (HOP-62 NSCLC) of 45.5 µM and a TGI (PC-3 prostate) of 25.1 µM. It also gave a TGI (OVCAR-5 ovarian) of 35.9 µM, a TGI (786-0 renal) of 29.9 µM and a TGI (OVCAR-8 ovarian) of 42.9 µM. For the same compound, the TGI (EKVX NSCLC) was 30 µM, the TGI (SK-MEL-28 melanoma) was 50.7 µM and the TGI (HCT-15 colon) was 34.4 µM. For the same compound, the TGI (CCRF-CEM leukemia) was 32.7 µM, the TGI (HT29 colon) was 30.1 µM and the TGI (SNB-75 CNS) was 27.4 µM. It also gave a TGI (A549 NSCLC) of 35.6 µM, a TGI (MALME-3M melanoma) of 32.5 µM and a TGI (K-562 leukemia) of 45.4 µM. It also gave a TGI (HL-60(TB) leukemia) of 34.2 µM, a TGI (NCI-H23 lung) of 32.2 µM and a TGI (MCF7 breast) of 34.7 µM. It also gave a TGI (MDA-N) of 32.2 µM, a TGI (OVCAR-3 ovarian) of 28.4 µM and a TGI (TK-10 renal) of 30.8 µM. For the same compound, the TGI (SK-OV-3 ovarian) was 29.3 µM, the TGI (BT-549 breast) was 29.9 µM and the TGI (DU-145 prostate) was 30 µM. For the same compound, the TGI (IGROV1 ovarian) was 31.4 µM, the TGI (SW-620 colon) was 57.2 µM and the TGI (SNB-19 CNS) was 29.5 µM. It also gave a TGI (U251 CNS) of 30.7 µM, a TGI (UO-31 renal) of 30.6 µM and a TGI (MDA-MB-231 breast) of 28.8 µM. For the same compound, the TGI (HCT-116 colon) was 29.4 µM, the TGI (SK-MEL-5 melanoma) was 24.5 µM and the TGI (ACHN renal) was 28.4 µM. The TGI (T-47D breast) was 17.2 µM, the TGI (NCI/ADR-RES ovarian) was 35 µM and the TGI (RPMI-8226 leukemia) was 39.6 µM. The TGI (NCI-H226 lung) was 41.6 µM, the TGI (OVCAR-4 ovarian) was 56.6 µM and the TGI (COLO 205 colon) was 20.5 µM. It also gave a TGI (LOX IMVI melanoma) of 53.6 µM.
In the case of `O=C(O)c1ccccc1CC1Cc2ccc3c(c2C1=O)CCC3` (stereo not drawn), the TGI (MOLT-4 leukemia) is reported as greater than 100 µM, the TGI (KM12 colon) is reported as greater than 100 µM and the TGI (CAKI-1 renal) is reported as greater than 100 µM. The TGI (M14 melanoma) was greater than 100 µM, the TGI (SF-268 CNS) was greater than 100 µM and the TGI (SR leukemia) was greater than 100 µM. The TGI (UACC-257 melanoma) was greater than 100 µM, the TGI (HOP-92 NSCLC) was greater than 100 µM and the TGI (SF-295 CNS) was greater than 100 µM. It also gave a TGI (HS 578T breast) greater than 100 µM, a TGI (MDA-MB-435) greater than 100 µM and a TGI (RXF 393 renal) greater than 100 µM. It also gave a TGI (SK-MEL-2 melanoma) greater than 100 µM, a TGI (UACC-62 melanoma) greater than 100 µM and a TGI (NCI-H522 lung) greater than 100 µM. It also gave a TGI (SN12C renal) greater than 100 µM, a TGI (HOP-62 NSCLC) greater than 100 µM and a TGI (PC-3 prostate) greater than 100 µM. The TGI (OVCAR-5 ovarian) was greater than 100 µM, the TGI (786-0 renal) was greater than 100 µM and the TGI (OVCAR-8 ovarian) was greater than 100 µM. It also gave a TGI (EKVX NSCLC) greater than 100 µM, a TGI (SK-MEL-28 melanoma) greater than 100 µM and a TGI (HCT-15 colon) greater than 100 µM. For the same compound, the TGI (CCRF-CEM leukemia) was greater than 100 µM, the TGI (HT29 colon) was greater than 100 µM and the TGI (NCI-H460 lung) was greater than 100 µM. It also gave a TGI (SNB-75 CNS) greater than 100 µM, a TGI (A549 NSCLC) greater than 100 µM and a TGI (MALME-3M melanoma) greater than 100 µM. For the same compound, the TGI (K-562 leukemia) was greater than 100 µM, the TGI (HL-60(TB) leukemia) was greater than 100 µM and the TGI (NCI-H23 lung) was greater than 100 µM. The TGI (HCC-2998 colon) was greater than 100 µM, the TGI (MCF7 breast) was greater than 100 µM and the TGI (MDA-N) was greater than 100 µM. The TGI (OVCAR-3 ovarian) was greater than 100 µM, the TGI (TK-10 renal) was greater than 100 µM and the TGI (SK-OV-3 ovarian) was greater than 100 µM. It also gave a TGI (BT-549 breast) greater than 100 µM, a TGI (DU-145 prostate) greater than 100 µM and a TGI (IGROV1 ovarian) greater than 100 µM. For the same compound, the TGI (SW-620 colon) was greater than 100 µM, the TGI (SNB-19 CNS) was greater than 100 µM and the TGI (U251 CNS) was greater than 100 µM. The TGI (UO-31 renal) was greater than 100 µM, the TGI (MDA-MB-231 breast) was greater than 100 µM and the TGI (HCT-116 colon) was greater than 100 µM. It also gave a TGI (SK-MEL-5 melanoma) greater than 100 µM, a TGI (ACHN renal) greater than 100 µM and a TGI (T-47D breast) greater than 100 µM. It also gave a TGI (NCI/ADR-RES ovarian) greater than 100 µM, a TGI (RPMI-8226 leukemia) greater than 100 µM and a TGI (SF-539 CNS) greater than 100 µM. For the same compound, the TGI (NCI-H226 lung) was greater than 100 µM, the TGI (OVCAR-4 ovarian) was greater than 100 µM and the TGI (COLO 205 colon) was greater than 100 µM. The TGI (LOX IMVI melanoma) was greater than 100 µM.
